Results published in ChEMBL document CHEMBL3580616, “Structure-based design of potent HIV-1 protease inhibitors with modified P1-biphenyl ligands: synthesis, biological evaluation, and enzyme-inhibitor X-ray structural studies” (J Med Chem, 2015).

Tests used:
[1] = tested on: Human immunodeficiency virus 1; assay: Antiviral activity against multidrug resistant HIV1 MDR/C containing protease mutant infected in human PHA-PBMs assessed as inhibition of p24 Gag protein production relative to wild type
[2] = tested on: Human immunodeficiency virus 1; assay: Antiviral activity against multidrug resistant HIV1 MDR/B containing protease mutant infected in human PHA-PBMs assessed as inhibition of p24 Gag protein production; conditions: Human immunodeficiency virus 1, MDR/B
[3] = tested on: Human immunodeficiency virus 1; assay: Antiviral activity against multidrug resistant HIV1 MDR/G containing protease mutant infected in human PHA-PBMs assessed as inhibition of p24 Gag protein production; conditions: Human immunodeficiency virus 1, MDR/G
[4] = tested on: Human immunodeficiency virus 1; assay: Antiviral activity against multidrug resistant HIV1 MDR/G containing protease mutant infected in human PHA-PBMs assessed as inhibition of p24 Gag protein production relative to wild type
[5] = tested on: Human immunodeficiency virus 1; assay: Antiviral activity against multidrug resistant HIV1 MDR/C containing protease mutant infected in human PHA-PBMs assessed as inhibition of p24 Gag protein production; conditions: Human immunodeficiency virus 1, MDR/C
[6] = tested on: Human immunodeficiency virus 1; assay: Antiviral activity against multidrug resistant HIV1 MDR/B containing protease mutant infected in human PHA-PBMs assessed as inhibition of p24 Gag protein production relative to wild type
[7] = tested on: Human immunodeficiency virus 1; assay: Antiviral activity against wild type HIV1 ERS104P infected in human PHA-PBMs assessed as inhibition of p24 Gag protein production; conditions: Human immunodeficiency virus 1, ERS104P
[8] = tested on: Human immunodeficiency virus 1; assay: Antiviral activity against HIV1 LAI infected in human MT-2 cells assessed as virus-induced cytopathic effect by MTT assay; conditions: Human immunodeficiency virus 1, LAI
Protease = Protease (Human immunodeficiency virus 1, UniProt Q9YQ12); assay: Inhibition of wild type HIV1 protease
Chain of Protease (Q9YQ12 whole entry): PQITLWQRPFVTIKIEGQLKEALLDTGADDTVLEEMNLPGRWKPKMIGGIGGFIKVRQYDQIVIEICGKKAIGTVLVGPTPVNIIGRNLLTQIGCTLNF

| Structure (SMILES) | IC50 [8] | Ki (Protease) | other results |
| --- | --- | --- | --- |
| CC(C)CN(C[C@@H](O)[C@H](Cc1ccccc1)NC(=O)O[C@H]1CCOC1)S(=O)(=O)c1ccc(N)cc1 |  |  | fold change (FC) [1]: 10; EC50 [2]: 44 nM; EC50 [3]: 398 nM; fold change (FC) [4]: 11; EC50 [5]: 380 nM; fold change (FC) [6]: 12; EC50 [7]: 37 nM |
| COc1ccc(S(=O)(=O)N(CC(C)C)C[C@@H](O)[C@H](Cc2cccc(-c3c(OC)cccc3OC)c2)NC(=O)O[C@H]2CO[C@H]3OCC[C@H]32)cc1 | 24 nM | 0.025 nM |  |
| COc1ccc(S(=O)(=O)N(CC(C)C)C[C@@H](O)[C@H](Cc2cccc(-c3cccc(OC)c3)c2)NC(=O)O[C@H]2CO[C@H]3OCC[C@H]32)cc1 | 5 nM | 0.014 nM |  |
| COc1ccc(S(=O)(=O)N(CC(C)C)C[C@@H](O)[C@H](Cc2cccc(-c3cc(C)cc(C)c3)c2)NC(=O)O[C@H]2CO[C@H]3OCC[C@H]32)cc1 | 56 nM | 0.45 nM |  |
| COc1ccc(S(=O)(=O)N(CC(C)C)C[C@@H](O)[C@H](Cc2cccc(-c3cc(OC)cc(OC)c3)c2)NC(=O)O[C@H]2CO[C@H]3OCC[C@H]32)cc1 | 5 nM | 0.014 nM |  |
| COc1ccc(S(=O)(=O)N(CC(C)C)C[C@@H](O)[C@H](Cc2cccc(-c3cc(C)cc(C)c3)c2)NC(=O)O[C@H]2CCOC2)cc1 | > 1000 nM | 0.63 nM |  |
| COc1ccc(S(=O)(=O)N(CC(C)C)C[C@@H](O)[C@H](Cc2cccc(-c3cccc(OC)c3)c2)NC(=O)O[C@H]2CCOC2)cc1 | > 381 nM | 1.53 nM |  |
| COc1ccc(S(=O)(=O)N(CC(C)C)C[C@@H](O)[C@H](Cc2cccc(-c3cc(OC)cc(OC)c3)c2)NC(=O)O[C@H]2CCOC2)cc1 | 180 nM | 0.58 nM |  |
| COc1ccc(S(=O)(=O)N(CC(C)C)C[C@@H](O)[C@H](Cc2cccc(-c3cc(C)cc(C)c3)c2)NC(=O)OC(C)(C)C)cc1 | > 1000 nM | 48.8 nM |  |
| COc1ccc(S(=O)(=O)N(CC(C)C)C[C@@H](O)[C@H](Cc2cccc(-c3cc(OC(F)(F)F)cc(OC(F)(F)F)c3)c2)NC(=O)OC(C)(C)C)cc1 | > 1000 nM | 92.8 nM |  |
| COc1ccc(S(=O)(=O)N(CC(C)C)C[C@@H](O)[C@H](Cc2cccc(-c3ccc4c(c3)OCO4)c2)NC(=O)OC(C)(C)C)cc1 | > 1000 nM | 18 nM |  |
| COc1ccc(S(=O)(=O)N(CC(C)C)C[C@@H](O)[C@H](Cc2cccc(-c3cc(OC)cc(OC)c3)c2)NC(=O)OC(C)(C)C)cc1 | > 1000 nM | 0.82 nM |  |
| COc1ccc(S(=O)(=O)N(CC(C)C)C[C@@H](O)[C@H](Cc2cccc(-c3ccccc3OC)c2)NC(=O)O[C@H]2CO[C@H]3OCC[C@H]32)cc1 | 3 nM | 0.012 nM | fold change (FC) [1]: 1; EC50 [2]: 36 nM; EC50 [3]: 4.7 nM; fold change (FC) [4]: 1; EC50 [5]: 2.9 nM; fold change (FC) [6]: 8; EC50 [7]: 4.8 nM |
